Results published in patent US6455540B1, “Methods of use of quinolone compounds against anaerobic pathogenic bacteria” (priority 1999, dated 2002).
Converted amounts (≈) assume the structure as drawn.

Experiments:
Test in all cases: Agar dilution MIC
Clostridium inocuum = assay type: cell-based, Clostridium innocuum; details: Clostridium, 11 isolates
[1] = test system: Prevotella buccae-oris group; assay type: cell-based; details: 22 isolates
[2] = test system: Anaerobiospirillum thomasii; assay type: cell-based; details: 13 isolates
Porphyromonas canoris = assay type: cell-based; details: 10 isolates
Bilophila wadsworthia = assay type: cell-based; details: Bilophila wadsworthia, 16 isolates, agar supplemented with pyruvate
[3] = test system: Fusobacterium spp group 1; assay type: cell-based; details: 19 isolates
[4] = test system: Peptostreptococcus prevotii; assay type: cell-based; details: 9 isolates
[5] = test system: Anaerobiospirillum succiniciproducens; assay type: cell-based; details: 3 isolates
Veillonella spp. = assay type: cell-based; details: Veillonella, 24 isolates
[6] = test system: Porphyromonas asaccharolyticus; assay type: cell-based, Porphyromonas asaccharolytica; details: 11 isolates
Prevotella intermedia = assay type: cell-based; details: 11 isolates
[7] = test system: Prevotella melaninogenica; assay type: cell-based; details: 12 isolates
[8] = test system: Peptostreptococcus magnus; assay type: cell-based; details: 13 isolates
[9] = test system: Peptostreptococcus micros; assay type: cell-based; details: 12 isolates
[10] = test system: Fusobacterium spp. group 2; assay type: cell-based, Fusobacterium mortiferum, necrogenes, ulcerans; details: Fusobacterium, 12 isolates
Bacteroides gracilis = assay type: cell-based, Bacteroides gracilis (Campylobacter gracilis); details: Campylobacter gracilis, 11 isolates
[11] = test system: Prevotella heparinolytica; assay type: cell-based; details: 16 isolates
Actinomyces israelii = assay type: cell-based; details: 6 isolates
Fusobacterium russii = assay type: cell-based
Porphyromonas macaccae = assay type: cell-based; details: 13 isolates
Porphyromonas spp. = assay type: cell-based, Porphyromonas cangingivalis, cansulci, circumdentaria, levii; details: 11 isolates
Prevotella bivia = assay type: cell-based; details: 21 isolates
Fusobacterium varium = assay type: cell-based; details: Fusobacterium varium, 17 isolates
Porphyromonas gingivalis = assay type: cell-based; details: 13 isolates
[12] = test system: Peptostreptococcus asaccharolyticus; assay type: cell-based; details: 11 isolates
[13] = test system: Actinomyces odontolyticus; assay type: cell-based; details: 10 isolates
Clostridium ramosum = assay type: cell-based; details: 10 isolates
[14] = test system: Clostridium clostridioforme; assay type: cell-based; details: 11 isolates
[15] = test system: Prevotella denticola/loeschii group; assay type: cell-based; details: 6 isolates
Bacteroides ureolyticus = assay type: cell-based; details: Campylobacter ureolyticus, 17 isolates
Bacteroides tectum = assay type: cell-based; details: 22 isolates
[16] = read-out: Minimal Inhibitory Concentration 90% (MIC90)
[17] = read-out: Minimal Inhibitory Concentration 50% (MIC50)
[18] = Porphyromonas, read-out: Minimal Inhibitory Concentration 50% (MIC50)
[19] = Porphyromonas, read-out: Minimal Inhibitory Concentration 90% (MIC90)

N[C@@H]1[C@H]2CN(c3nc4c(cc3F)c(=O)c(C(=O)O)cn4-c3ccc(F)cc3F)C[C@@H]12 [Trovafloxacin]
MIC90 (Clostridium inocuum; [16]): 8 µg/mL (≈ 19.2 µM)
MIC50 (Clostridium inocuum; [17]): 0.5 µg/mL (≈ 1.2 µM)
Minimal Inhibitory Concentration Range [1]: 0.25 to 4 µg/mL
MIC90 ([1]; Prevotella, read-out: Minimal Inhibitory Concentration 90% (MIC90)): 2 µg/mL (≈ 4.8 µM)
MIC50 ([1]; Prevotella, read-out: Minimal Inhibitory Concentration 50% (MIC50)): 1 µg/mL (≈ 2.4 µM)
Minimal Inhibitory Concentration Range [2]: 0.06 to 0.5 µg/mL
MIC50 ([2]; Anaerobiospirillum thomasii, read-out: Minimal Inhibitory Concentration 50% (MIC50)): 0.125 µg/mL (≈ 0.3 µM)
MIC90 ([2]; Anaerobiospirillum thomasii, read-out: Minimal Inhibitory Concentration 90% (MIC90)): 0.25 µg/mL (≈ 0.6 µM)
Minimal Inhibitory Concentration Range (Porphyromonas canoris): 0.06 to 0.5 µg/mL
MIC50 (Porphyromonas canoris; Porphyromonas canoris, read-out: Minimal Inhibitory Concentration 50% (MIC50)): 0.25 µg/mL (≈ 0.6 µM)
MIC90 (Porphyromonas canoris; Porphyromonas canoris, read-out: Minimal Inhibitory Concentration 90% (MIC90)): 0.5 µg/mL (≈ 1.2 µM)
MIC90 (Bilophila wadsworthia; [16]): > 8 µg/mL
MIC50 (Bilophila wadsworthia; [17]): 0.5 µg/mL (≈ 1.2 µM)
Minimal Inhibitory Concentration Range [3]: 0.25 to 4 µg/mL
MIC50 ([3]; Fusobacterium, GROUP1, read-out: Minimal Inhibitory Concentration 50% (MIC50)): 0.5 µg/mL (≈ 1.2 µM)
MIC90 ([3]; Fusobacterium, GROUP1, read-out: Minimal Inhibitory Concentration 90% (MIC90)): 4 µg/mL (≈ 9.61 µM)
Minimal Inhibitory Concentration Range [4]: 0.25 to 1 µg/mL
MIC50 ([4]; Anaerococcus prevotii, read-out: Minimal Inhibitory Concentration 50% (MIC50)): 0.25 µg/mL (≈ 0.6 µM)
Minimal Inhibitory Concentration Range [5]: 0.5 to 2 µg/mL
MIC50 ([5]; Anaerobiospirillum succiniciproducens, read-out: Minimal Inhibitory Concentration 50% (MIC50)): 1 µg/mL (≈ 2.4 µM)
MIC90 (Veillonella spp.; [16]): > 8 µg/mL
MIC50 (Veillonella spp.; [17]): 0.25 µg/mL (≈ 0.6 µM)
Minimal Inhibitory Concentration Range [6]: 0.03 to 0.25 µg/mL
MIC50 [6, 18]: 0.25 µg/mL (≈ 0.6 µM)
MIC90 [6, 19]: 0.25 µg/mL (≈ 0.6 µM)
Minimal Inhibitory Concentration Range (Prevotella intermedia): 0.06 to 1 µg/mL
MIC90 (Prevotella intermedia; Prevotella intermedia, read-out: Minimal Inhibitory Concentration 90% (MIC90)): 1 µg/mL (≈ 2.4 µM)
MIC50 (Prevotella intermedia; Prevotella intermedia, read-out: Minimal Inhibitory Concentration 50% (MIC50)): 0.5 µg/mL (≈ 1.2 µM)
Minimal Inhibitory Concentration Range [7]: 0.06 to 8 µg/mL
MIC90 ([7]; Prevotella melaninogenica, read-out: Minimal Inhibitory Concentration 90% (MIC90)): 4 µg/mL (≈ 9.61 µM)
MIC50 ([7]; Prevotella melaninogenica, read-out: Minimal Inhibitory Concentration 50% (MIC50)): 1 µg/mL (≈ 2.4 µM)
Minimal Inhibitory Concentration Range [8]: 0.06 to 0.25 µg/mL
MIC50 ([8]; Finegoldia magna, read-out: Minimal Inhibitory Concentration 50% (MIC50)): 0.125 µg/mL (≈ 0.3 µM)
MIC90 ([8]; Finegoldia magna, read-out: Minimal Inhibitory Concentration 90% (MIC90)): 0.25 µg/mL (≈ 0.6 µM)
Minimal Inhibitory Concentration Range [9]: 0.03 to 0.125 µg/mL
MIC50 ([9]; Parvimonas micra, read-out: Minimal Inhibitory Concentration 50% (MIC50)): 0.06 µg/mL (≈ 0.144 µM)
MIC90 ([9]; Parvimonas micra, read-out: Minimal Inhibitory Concentration 90% (MIC90)): 0.06 µg/mL (≈ 0.144 µM)
MIC50 [10, 17]: 4 µg/mL (≈ 9.61 µM)
MIC90 [10, 16]: 4 µg/mL (≈ 9.61 µM)
MIC90 (Bacteroides gracilis; [16]): 0.5 µg/mL (≈ 1.2 µM)
MIC50 (Bacteroides gracilis; [17]): 0.03 µg/mL (≈ 0.0721 µM)
Minimal Inhibitory Concentration Range [11]: 0.125 to 0.25 µg/mL
MIC90 ([11]; Prevotella heparinolytica, read-out: Minimal Inhibitory Concentration 90% (MIC90)): 0.25 µg/mL (≈ 0.6 µM)
MIC50 ([11]; Prevotella heparinolytica, read-out: Minimal Inhibitory Concentration 50% (MIC50)): 0.125 µg/mL (≈ 0.3 µM)
Minimal Inhibitory Concentration Range (Actinomyces israelii): 0.5 to 2 µg/mL
MIC50 (Actinomyces israelii; Actinomyces israelii, read-out: Minimal Inhibitory Concentration 50% (MIC50)): 1 µg/mL (≈ 2.4 µM)
Minimal Inhibitory Concentration Range (Fusobacterium russii): 0.5 to 4 µg/mL
MIC50 (Fusobacterium russii; Fusobacterium russii, read-out: Minimal Inhibitory Concentration 50% (MIC50)): 4 µg/mL (≈ 9.61 µM)
MIC90 (Fusobacterium russii; Fusobacterium russii, read-out: Minimal Inhibitory Concentration 90% (MIC90)): 4 µg/mL (≈ 9.61 µM)
Minimal Inhibitory Concentration Range (Porphyromonas macaccae): 0.03 to 0.125 µg/mL
MIC50 (Porphyromonas macaccae; [18]): 0.06 µg/mL (≈ 0.144 µM)
MIC90 (Porphyromonas macaccae; [19]): 0.125 µg/mL (≈ 0.3 µM)
Minimal Inhibitory Concentration Range (Porphyromonas spp.): 0.06 to 1 µg/mL
MIC50 (Porphyromonas spp.; [18]): 0.25 µg/mL (≈ 0.6 µM)
MIC90 (Porphyromonas spp.; [19]): 1 µg/mL (≈ 2.4 µM)
Minimal Inhibitory Concentration Range (Prevotella bivia): 1 to 4 µg/mL
MIC90 (Prevotella bivia; Prevotella bivia, read-out: Minimal Inhibitory Concentration 90% (MIC90)): 2 µg/mL (≈ 4.8 µM)
MIC50 (Prevotella bivia; Prevotella bivia, read-out: Minimal Inhibitory Concentration 50% (MIC50)): 2 µg/mL (≈ 4.8 µM)
MIC50 (Fusobacterium varium; [17]): 4 µg/mL (≈ 9.61 µM)
MIC90 (Fusobacterium varium; [16]): > 8 µg/mL
Minimal Inhibitory Concentration Range (Porphyromonas gingivalis): 0.03 to 0.06 µg/mL
MIC50 (Porphyromonas gingivalis; Porphyromonas gingivalis, read-out: Minimal Inhibitory Concentration 50% (MIC50)): 0.06 µg/mL (≈ 0.144 µM)
MIC90 (Porphyromonas gingivalis; Porphyromonas gingivalis, read-out: Minimal Inhibitory Concentration 90% (MIC90)): 0.06 µg/mL (≈ 0.144 µM)
Minimal Inhibitory Concentration Range [12]: 0.5 to 2 µg/mL
MIC50 ([12]; Peptoniphilus asaccharolyticus, read-out: Minimal Inhibitory Concentration 50% (MIC50)): 1 µg/mL (≈ 2.4 µM)
MIC90 ([12]; Peptoniphilus asaccharolyticus, read-out: Minimal Inhibitory Concentration 90% (MIC90)): 1 µg/mL (≈ 2.4 µM)
Minimal Inhibitory Concentration Range [13]: 2 to 4 µg/mL
MIC90 ([13]; Schaalia odontolytica, read-out: Minimal Inhibitory Concentration 90% (MIC90)): 4 µg/mL (≈ 9.61 µM)
MIC50 ([13]; Schaalia odontolytica, read-out: Minimal Inhibitory Concentration 50% (MIC50)): 4 µg/mL (≈ 9.61 µM)
Minimal Inhibitory Concentration Range (Clostridium ramosum): 0.25 to 8 µg/mL
MIC50 (Clostridium ramosum; Thomasclavelia ramosa, read-out: Minimal Inhibitory Concentration 50% (MIC50)): 0.5 µg/mL (≈ 1.2 µM)
MIC90 (Clostridium ramosum; Thomasclavelia ramosa, read-out: Minimal Inhibitory Concentration 90% (MIC90)): 2 µg/mL (≈ 4.8 µM)
Minimal Inhibitory Concentration Range [14]: 1 to 8 µg/mL
MIC90 ([14]; Clostridium, read-out: Minimal Inhibitory Concentration 90% (MIC90)): 4 µg/mL (≈ 9.61 µM)
MIC50 ([14]; Clostridium, read-out: Minimal Inhibitory Concentration 50% (MIC50)): 4 µg/mL (≈ 9.61 µM)
Minimal Inhibitory Concentration Range [15]: 0.06 to 4 µg/mL
MIC50 ([15]; Prevotella denticola, read-out: Minimal Inhibitory Concentration 50% (MIC50)): 1 µg/mL (≈ 2.4 µM)
MIC90 (Bacteroides ureolyticus; [16]): 4 µg/mL (≈ 9.61 µM)
MIC50 (Bacteroides ureolyticus; [17]): 0.06 µg/mL (≈ 0.144 µM)
Minimal Inhibitory Concentration Range (Bacteroides tectum): 0.03 to 0.125 µg/mL
MIC90 (Bacteroides tectum; Bacteroides pyogenes, read-out: Minimal Inhibitory Concentration 90% (MIC90)): 0.125 µg/mL (≈ 0.3 µM)
MIC50 (Bacteroides tectum; Bacteroides pyogenes, read-out: Minimal Inhibitory Concentration 50% (MIC50)): 0.06 µg/mL (≈ 0.144 µM)
